{"source": "paper PMC5048659", "about": "(Arthritis Research & Therapy, 2016)", "key": {"OAT1 and OAT3": {"system": "OAT1 and OAT3", "conditions": "in vivo; cited from earlier work"}, "[1]": {"assay": "Lesinurad plasma pharmacokinetics and urinary excretion in the clinic", "assay_type": "in vivo, human", "conditions": "single 200-mg dose", "protocol": "(§1) In each treatment period, plasma samples were collected within 30 minutes before dosing (pre-dose) and at 0.5, 1, 1.5, 2, 3, 4, 5, 6, 8, 10, 12, 16, 24, 30, 36, and 48 hours post-dose. Urine (total catch) was collected pretreatment at hours –24 to –18, –18 to –12, and –12 to 0, and post-dose at hours 0 to 6, 6 to 12, 12 to 24, 24 to 30, 30 to 36, and 36 to 48.\n(§2) After protein precipitation of the samples, lesinurad levels in plasma and urine were measured at Ardea Biosciences by quantitative high performance liquid chromatography with tandem mass spectrometry. […] The parameters from individual profiles of lesinurad were determined using noncompartmental methods. Urine samples were analyzed for uric acid and creatinine using enzymatic methods by Covance Clinical Research Unit (Dallas, TX, USA), and pharmacodynamic (PD) parameters were determined by Covance Clinical Research Unit using SAS, Version 8.2 (SAS Institute Inc). Calculated PD parameters for uric acid included urinary excretion, renal clearance, and FEUA. FEUA was calculated by dividing the uric acid clearance by the creatinine clearance."}, "PPARγ": {"target": "T1, PPARγ (Homo sapiens, UniProt P37231)", "T1 sequence (P37231 238-505 limits assumed)": "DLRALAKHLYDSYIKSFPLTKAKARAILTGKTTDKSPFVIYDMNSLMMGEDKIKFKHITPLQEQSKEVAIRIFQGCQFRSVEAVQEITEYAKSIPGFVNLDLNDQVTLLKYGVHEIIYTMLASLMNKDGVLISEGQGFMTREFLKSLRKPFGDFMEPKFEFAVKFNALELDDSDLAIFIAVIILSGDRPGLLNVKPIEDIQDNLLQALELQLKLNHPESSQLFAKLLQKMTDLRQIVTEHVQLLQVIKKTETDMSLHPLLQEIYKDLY", "assay": "Human PPARγ luciferase reporter assay", "assay_type": "cell-based", "conditions": "reporter cells, 24 hours, up to 100 μM", "protocol": "This assay was performed using nonhuman mammalian cells engineered to provide a PPARγ-responsive luciferase reporter gene and constitutive, high levels of PPARγ (Indigo Biosciences catalog number IB00101). Cells were incubated with compounds for 24 hours, and then luciferase activity was measured using a luminometer. Agonist activity was reported as fold activation over a vehicle control. A positive control agonist, rosiglitazone, was included in each batch run to verify cell integrity."}, "healthy volunteers": {"system": "healthy volunteers", "assay": "Clinical effect on fractional excretion of uric acid (phase 1 RDEA594-109)", "assay_type": "in vivo, human", "conditions": "for Peak FEUA: within 6 hours, baseline 5.8 %", "protocol": "as §1, §2"}, "[2]": {"conditions": "cited from earlier work"}, "GLUT9 (SLC2A9v2/GLUT9ΔN)": {"target": "T2, GLUT9 (SLC2A9v2/GLUT9ΔN) (Homo sapiens, UniProt Q9NRM0)", "T2 construct": "expressed in transfected cells", "T2 sequence (Q9NRM0 1-511 isoform Q9NRM0-2)": "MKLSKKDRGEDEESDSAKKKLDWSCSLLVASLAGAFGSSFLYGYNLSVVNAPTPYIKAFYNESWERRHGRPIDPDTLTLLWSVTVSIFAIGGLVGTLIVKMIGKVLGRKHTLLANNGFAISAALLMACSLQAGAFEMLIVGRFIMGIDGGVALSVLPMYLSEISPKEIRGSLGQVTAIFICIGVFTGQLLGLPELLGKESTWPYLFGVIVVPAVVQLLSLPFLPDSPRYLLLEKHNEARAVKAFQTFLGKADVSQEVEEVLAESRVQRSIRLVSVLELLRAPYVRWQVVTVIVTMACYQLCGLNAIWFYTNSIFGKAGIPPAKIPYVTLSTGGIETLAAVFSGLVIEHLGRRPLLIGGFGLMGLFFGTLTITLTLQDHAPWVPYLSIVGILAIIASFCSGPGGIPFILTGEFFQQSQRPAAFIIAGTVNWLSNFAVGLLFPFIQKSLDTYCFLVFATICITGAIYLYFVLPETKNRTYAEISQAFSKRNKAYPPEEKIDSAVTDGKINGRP", "assay": "GLUT9 urate transport in cRNA-injected oocytes", "assay_type": "cell-based", "protocol": "For GLUT9, SLC2A9v2/GLUT9ΔN in pCMV6/neo was linearized with XmaI and NotI and cRNA transcribed using the mMessage mMachine T7 kit (Ambion). Oocytes were injected with either water or 25 ng cRNA and incubated for 3 to 5 days in ND96 buffer. For each point, 10 oocytes were incubated with 100 μM ^14C-uric acid in ND96 buffer with and without test compounds at room temperature for 60 minutes. The oocytes were then washed three to four times in ice-cold ND96 buffer and lysed prior to scintillation counting."}, "OAT3": {"system": "OAT3", "design": "method as in earlier work", "conditions": "oocytes, 2 µM 3H-estrone sulfate, 60 min; shown in Figure S1; ref 41 (Shen et al.); read-out: IC50 against OAT3; cited from earlier work"}}, "note": "“Also recorded” adds a separate entry of the source."}
{"smiles": "O=C(O)CSc1nnc(Br)n1-c1ccc(C2CC2)c2ccccc12", "note": "[Lesinurad, 2-((5-bromo-4-(4-cyclopropylnaphthalen-1-yl)-4H-1,2,4-triazol-3-yl)thio) acetic acid]", "values": [{"measurement": "Effect on renal clearance and PD of the OAT substrate furosemide", "setting": "OAT1 and OAT3", "value": "no effect"}, {"measurement": "Maximal plasma concentration", "setting": "[1]", "value": 29, "unit": "µM"}, {"measurement": "Predicted maximal plasma-free concentration", "setting": "[1]; from Cmax and 98.4 % protein binding", "value": 0.46, "unit": "µM"}, {"measurement": "PPARγ activation", "setting": "PPARγ", "value": "no PPARγ agonism"}, {"measurement": "EC50", "setting": "healthy volunteers; Homo sapiens, single 200-, 400- or 600-mg doses, healthy volunteers, read-out: Half-maximal effective plasma concentration for elevating FEUA", "value": 13, "unit": "µM"}, {"measurement": "FEUA in some individuals with high plasma lesinurad", "setting": "healthy volunteers; healthy volunteers, single doses", "value": "up to 35%"}, {"measurement": "Elevation of FEUA", "setting": "healthy volunteers; single 200-mg dose, after 6 hours, p < 0.001", "value": 3.6, "unit": "fold"}, {"measurement": "Peak FEUA", "setting": "healthy volunteers; single 200-mg oral dose", "value": 21.8, "unit": "%"}, {"measurement": "Peak FEUA", "setting": "healthy volunteers; single 400-mg oral dose", "value": 26.7, "unit": "%"}, {"measurement": "Peak FEUA", "setting": "healthy volunteers; single 600-mg oral dose", "value": 32.3, "unit": "%"}, {"measurement": "Plasma protein binding", "setting": "[2]", "value": 98.4, "unit": "%"}, {"measurement": "IC50", "setting": "GLUT9 (SLC2A9v2/GLUT9ΔN); 100 μM 14C-uric acid, 60 min, read-out: Potency against GLUT9", "value": "> 100", "unit": "µM"}, {"measurement": "Effect on GLUT9 urate transport", "setting": "GLUT9 (SLC2A9v2/GLUT9ΔN); compound at up to 100 μM", "value": "no effect; also recorded: does not inhibit"}, {"measurement": "IC50", "setting": "OAT3", "value": 3.54, "unit": "µM"}]}
